What was measured:
[1] = Prodrug conversion in human CEM-SS cell extract assessed as parent ddA formation at 0.00005 M measured at 50 to 150 hrs by HPLC analysis; format: ADME, cell-based; conditions: 50 µM, time 50-150 hrs
[2] = test system: Human immunodeficiency virus 1; test: Anti-HIV activity against HIV-1 infected in human CEM-SS cells assessed as inhibition of viral replication; format: functional, organism-based; conditions: Human immunodeficiency virus 1, CEM-SS
[3] = Cytotoxicity against human PBMC assessed as reduction in cell viability; format: toxicity, cell-based
[4] = test system: CEM-SS; test: Cytotoxicity against human CEM-SS cells assessed as reduction in cell viability; format: functional
[5] = test system: Human immunodeficiency virus 1; test: Anti-HIV activity against HIV-1 infected in human MDM assessed as inhibition of viral replication; format: functional, organism-based
[6] = Cytotoxicity against human MDM assessed as reduction in cell viability; format: toxicity, cell-based
[7] = Cytotoxicity against human MT4 cells assessed as reduction in cell viability; format: toxicity, cell-based
[8] = test system: Human immunodeficiency virus 1; test: Anti-HIV activity against HIV-1 infected in human MT4 cells assessed as inhibition of viral replication; format: functional, organism-based; conditions: Human immunodeficiency virus 1, MT4
[9] = test system: Human immunodeficiency virus 1; test: Anti-HIV activity against HIV-1 infected in human PBMC assessed as inhibition of viral replication; format: functional, organism-based; conditions: Human immunodeficiency virus 1, PBMC
[10] = test system: CEM-TK(-); test: Cytotoxicity against human CEM-TK(-) cells assessed as reduction in cell viability; format: functional
[11] = test system: Human immunodeficiency virus 1; test: Anti-HIV activity against HIV-1 infected in human CEM-TK(-) cells assessed as inhibition of viral replication; format: functional, organism-based; conditions: Human immunodeficiency virus 1, CEM-TK(-)
[12] = Stability of compound in phosphate buffer at pH 7.4 by HPLC analysis; format: physicochemical
[13] = Prodrug conversion in human CEM-SS cell extract assessed as ddAMP formation at 0.00005 M measured at 100 to 500 mins by HPLC analysis; format: ADME, cell-based; conditions: 50 µM, time 100-500 min
[14] = Stability of compound in RPMI 1640 culture medium at pH 7.45 by HPLC analysis; format: physicochemical; conditions: buffer
[15] = Stability of compound in inactivated fetal calf serum with RPMI 1640 culture medium assessed as compound half life by HPLC analysis; format: ADME, cell-free, Bos taurus; conditions: cattle
[16] = Stability of compound in phosphate buffer at pH 7.4 assessed as compound half life by HPLC analysis; format: physicochemical
[17] = Stability of compound in RPMI 1640 culture medium at pH 7.45 assessed as compound half life by HPLC analysis; format: physicochemical
[18] = Prodrug conversion in human CEM-SS cell extract assessed as O-((2S,5R)-5-(6-amino-9H-purin-9-yl)tetrahydrofuran-2-yl)methyl S-2-(pivaloylthio)ethyl phos-phorothioate sodium salt metabolite formation at 0.00005 M measured at 5 to 15 hrs by HPLC analysis; format: ADME, cell-based; conditions: 50 µM, time 5-15 hrs
[19] = Stability of compound in human CEM-SS cell extract at pH 7.45 assessed as compound half life by HPLC analysis; format: ADME, cell-based
[20] = Prodrug conversion in human CEM-SS cell extract assessed as metabolite X formation at 0.00005 M measured at 100 to 500 mins by HPLC analysis; format: ADME, cell-based; conditions: 50 µM, time 100-500 min
[21] = Prodrug conversion in human CEM-SS cell extract assessed as S-(O-pivaloyl-2-oxyethyl)O-2',3'-dideoxyadenosin-5'-yl phos-phorothiolate diester sodium salt metabolite formation at 0.00005 M measured at 5 to 15 hrs by HPLC analysis; format: ADME, cell-based; conditions: 50 µM, time 5-15 hrs
[22] = Prodrug conversion in inactivated fetal calf serum with RPMI 1640 culture medium assessed as S-(O-pivaloyl-2-oxyethyl)O-2',3'-dideoxyadenosin-5'-yl phos-phorothiolate diester sodium salt metabolite formation at 0.00005 M measured at 50 to 150 hrs by HPLC analysis; format: ADME, cell-free, Bos taurus; conditions: cattle, 50 µM, time 50-150 hrs

| SMILES | EC50 [2] [nM] | EC50 [8] [nM] | EC50 [11] [nM] | CC50 [4] [nM] | CC50 [7] [nM] | CC50 [10] [nM] | also measured |
| --- | --- | --- | --- | --- | --- | --- | --- |
| Nc1ncnc2c1ncn2[C@H]1CC[C@@H](COP(=O)(O)O)O1 | – | – | – | – | – | – | Drug metabolism [1]: Metabolite_Detected |
| Cc1cn([C@H]2C=C[C@@H](COP(=O)(SCCOC(=O)C(C)(C)C)SCCOC(=O)C(C)(C)C)O2)c(=O)[nH]c1=O | 27 | 99 | 5 | > 10000 | > 10000 | 8000 | – |
| Cc1cn([C@H]2CC[C@@H](COP(=O)(SCCOC(=O)C(C)(C)C)SCCOC(=O)C(C)(C)C)O2)c(=O)[nH]c1=O | 80 | 900 | 50 | > 10000 | > 10000 | > 10000 | – |
| CC(C)(C)C(=O)OCCSP(=O)([O-])OC[C@@H]1CC[C@H](n2cnc3c(N)ncnc32)O1.[Na+] | – | – | – | – | – | – | Stability [12]: Stable; Drug metabolism [13]: Metabolite_Detected; Stability [14]: Stable |
| CC(C)(C)C(=O)SCCOP(=O)([O-])OC[C@@H]1CC[C@H](n2cnc3c(N)ncnc32)O1.[Na+] | – | – | – | – | – | – | Drug metabolism [20]: Metabolite_Detected; Stability [12]: Stable; Drug metabolism [13]: Metabolite_Detected; Stability [14]: Stable |
| CC(C)(C)C(=O)OCCSP(=O)(OC[C@@H]1CC[C@H](n2cnc3c(N)ncnc32)O1)SCCOC(=O)C(C)(C)C | 25 | 270 | – | > 10000 | > 1000 | – | half-life [15]: 38.4 h; Drug metabolism [21]: Metabolite_Detected; CC50 [3]: > 10000 nM; half-life [16]: 69.6 h; half-life [17]: 52.8 h; Drug metabolism [22]: Metabolite_Detected; EC50 [5]: 0.23 nM; CC50 [6]: 8600 nM; EC50 [9]: 20 nM; half-life [19]: 5.3 h |

Continued, in another order:

| EC50 [2] [nM] | EC50 [8] [nM] | EC50 [11] [nM] | SMILES | CC50 [4] [nM] | CC50 [7] [nM] | CC50 [10] [nM] | also measured |
| --- | --- | --- | --- | --- | --- | --- | --- |
| 490 | 7800 | – | Nc1ncnc2c1ncn2[C@H]1CC[C@@H](CO)O1 | > 100000 | > 100000 | – | CC50 [3]: > 100000 nM; EC50 [5]: 120 nM; CC50 [6]: 100000 nM; EC50 [9]: 240 nM |
| 700 | 16000 | > 100000 | Cc1cn([C@H]2CC[C@@H](CO)O2)c(=O)[nH]c1=O | > 100000 | > 100000 | > 100000 | – |
| 220 | 2500 | 50 | Cc1cn([C@H]2CC[C@@H](COP(=O)(OCCSC(=O)C(C)(C)C)OCCSC(=O)C(C)(C)C)O2)c(=O)[nH]c1=O | > 10000 | > 10000 | > 10000 | – |
| 18 | 320 | – | CC(C)(C)C(=O)SCCOP(=O)(OCCSC(=O)C(C)(C)C)OC[C@@H]1C=C[C@H](n2cnc3c(N)ncnc32)O1 | 5900 | 9000 | – | half-life [15]: 166 h; CC50 [3]: 1700 nM; half-life [16]: 432 h; half-life [17]: 302 h; EC50 [5]: 0.16 nM; CC50 [6]: 3600 nM; Drug metabolism [18]: Metabolite_Detected; EC50 [9]: 47 nM; half-life [19]: 1 h |
| 30 | 260 | 21 | Cc1cn([C@H]2C=C[C@@H](COP(=O)(OCCSC(=O)C(C)(C)C)OCCSC(=O)C(C)(C)C)O2)c(=O)[nH]c1=O | > 10000 | > 10000 | 4600 | – |
| 59 | 280 | > 10000 | Cc1cn([C@H]2C=C[C@@H](CO)O2)c(=O)[nH]c1=O [STAVUDINE] | > 100000 | > 100000 | > 100000 | – |

Reference: ChEMBL document CHEMBL5120747, “Mononucleoside phosphorodithiolates as mononucleotide prodrugs” (Eur J Med Chem, 2022)
